According to article PMC9661696, “Inhibition of β-Amyloid Aggregation in Alzheimer’s Disease: The Key Role of (Pro)electrophilic Warheads” (ACS Medicinal Chemistry Letters, 2022):
pIC50: −log10 of the molar value.

Tests used:
[1] = target: T1, Aβ42 (β-amyloid peptide) (Homo sapiens, UniProt P05067); assay: inhibition of Aβ[…] self-aggregation, MS monomer quantification at […] (also ThT assay); format: biochemical; details: read-out: inhibition of Aβ42 self-aggregation / % inhibition by MS ± SD [I] = 50 μM ^b
T1 construct: gene APP; Aβ42

[2] = target: T1, Aβ42 (β-amyloid peptide); assay: MS and LC-MS/MS detection of covalent adduct with Aβ[…]; ThT aggregation assay (IC50); format: biochemical

T1 sequence (P05067 672-713): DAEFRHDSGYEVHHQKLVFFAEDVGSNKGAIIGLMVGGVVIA

Row | inhibition at 50 µM [1] [%] | pIC50 [2] | SMILES
1 | 56.9 | – | CCCSC(=O)/C=C/c1ccc(O)c(O)c1 [compound 1]
2 | – | 4.99 | CCCSC(=O)/C=C/c1cc(O)ccc1O [compound 3, para-hydroquinone 3]
